Series [1] is described as follows: Metabolic stability assay, human liver microsomes (HLM). The format is in vitro ADME. The conditions noted are these: for half-life at 3 µM: pH 7.4, read-out: Liver Microsomes T1/2 (min) H. An excerpt: Controls were processed and analyzed like the test compounds.
(Liver microsomes are vesicles of endoplasmic reticulum, rich in cytochrome P450 enzymes.)

A further series can be described thus: PAMPA assay. The conditions noted are these: pH 7.4. The format is in vitro ADME. How it is done: PAMPA assay was performed by BioAssay Systems Services or Bristol Myers Squibb. The method used by BioAssay Systems Services is described below.
Stock solutions in DMSO for all compounds (10 mM) were thawed. The assay was performed in duplicate by following the PAMPA-096 procedure for sample plating. 4% Lecithin in dodecane solution was prepared by resuspending the dried lecithin with 750 μL dodecane. PBS pH 7.4 was used as the diluent. Two sets of plates and equilibrium solutions were incubated for 4 hours at room temperature. Acceptor and equilibrium solutions were analyzed in a UV plate. OD280 nm was used for High Permeability Control (chloramphenicol). OD270 nm was used for Medium Permeability Control (diclofenac) and Low Permeability Control (theophylline). OD254 nm was used for the test compounds.
Data analysis was performed by using the peak absorbance for each respective test compound and Permeability Control to determine the Permeability Rate (Pe) via the following equation: […]
where ODA is the absorbance of Acceptor Solution, ODE is the absorbance of the Equilibrium Standard, and C is determined by the equation below: […]
where Donor Volume (VD) is 0.2 cm^3, Acceptor Volume (VA) is 0.3 cm^3, and Membrane Area (Area) is 0.24 cm^2.
(In general: PAMPA measures passive passage across an artificial lipid membrane.)

In the next series the target is CXCR4 (Homo sapiens, UniProt P61073). Nature of the series: cAMP assay in CXCR4-CHO-Glo cells (GloSensor, forskolin + SDF-1α). The format is cell-based. Details: expressed in transfected cells. An excerpt: Materials, reagents, and instrument—Advanced DMEM (Gibco), trypsin EDTA (0.05%, phenol red), L-glutamine, HBSS buffer with and without Ca^2+/Mg^2+ (Gibco), antibiotic-antimycotic (Gibco), hygromycin B, and geneticin selective antibiotic (G418 sulfate) were purchased from Invitrogen. Forskolin (Tocris), SDF-1α (R&D Systems), HEPES (Sigma Aldrich), FBS (Atlanta Biologicals), D-luciferin (Gold Biotechnology), sterile 60 mm tissue culture dishes, and 96-well sterile tissue culture plates were purchased from Corning.
The assay targeted CXCR4 expressed in CHO-gloSensor cells. It monitored GPCR activation based on forskolin-stimulated cAMP production in cells. The assay used a genetically encoded biosensor with its cAMP binding domain fused to luciferase. Binding of cAMP to the cAMP binding domain changed the conformation of the biosensor, leading to the activation of luciferase. The intensity of the luciferase signal (light output) resulted from the oxidation of D-luciferin to oxyluciferin is proportional to the amount of cAMP produced in the cells.
The assay was performed in triplicate using live cells in 96-well tissue culture plates. Cells were pre-incubated in the dark at room temperature for one hour in the presence of D-luciferin. Bioluminescence was quantified before and after the agonist/antagonist addition. Stock solution of forskolin and SDF-1a, was prepared in Locke-Luc buffer. Stock solutions of the test compounds were prepared in DMSO (10 mM); they were diluted by Locke's buffer for use in the assay.
CHO-Glo cells, a cell line stably expressing the GloSensor cAMP biosensor (Promega), were transfected with cDNA encoding human CXCR4 in Pires-AcGFP1 (Clontech) and a stable cell line was isolated (CXCR4-CHO-Glo cells). The CXCR4-CHO-Glo cells were grown to confluency on 60 mm tissue culture dishes. After trypsinization, the cells were plated on 96-well plates and incubated overnight. The next day, culture media in each well was aspirated and replaced with 100 μL Locke's buffer containing 4 mM D-luciferin, followed by incubation in the dark for one hour. Before the addition of agonist/antagonist, each plate was read five times at 2 min intervals to obtain basal bioluminescence values from each well. The average of these five pre-readings was used to normalize each well's response to account for differences in GloSensor expression and cell density. After five pre-readings, cAMP formation was initiated with the addition of 50 μL solution of test compound (TC) in Locke Luc buffer containing forskoline and SDF-1α. […] Luminescence was measured immediately after the addition of the antagonist solution. The measurements were taken every two minutes for 30 minutes in kinetics mode after antagonist addition. IC50 values were calculated from the 4-parameter logistic equation using Prism GraphPad.
For orientation: Changes in cAMP serve as a functional read-out for many G protein-coupled receptors.

Another series deals with T1, CYP2D6 (Homo sapiens, UniProt P10635).
T1 construct: purchased Corning; host or cells: insect cells (microsomes)
Put plainly: Fluorometric CYP450 inhibition assay, CYP2D6. The format is in vitro ADME. The conditions noted are these: read-out: CYP450 IC50 (μM) 2D6. The procedure:
The CYP450 inhibition assays utilized microsomes from insect cells expressing human recombinant individual cDNA-expressed CYP isoforms 3A4 and 2D6, as well as the fluorogenic probe that produces fluorescent metabolite. Standard inhibitors were co-incubated with fluorogenic substrates and their inhibitory potential (IC50) was determined. Assay conditions in terms of CYP450 protein concentration and time of incubation were standardized, enzyme kinetics parameters of each fluorescent probe substrate were estimated and IC50 values of inhibitors were determined and validated on different days to check reproducibility.
A 100 mM sodium phosphate buffer was prepared and adjusted to pH 7.4. In a separate falcon tube, a 2× enzyme/substrate (E/S) solution was prepared in phosphate buffer. The final concentration of CYP2D6 (CORNING®) and 7-amido-4-methyl coumaric acid (AMMC) was 10 nM and 4 μM, and CYP3A4 (CORNING®) and 7-benzyloxy-4-(trifluoromethyl) coumarin (BFC) was 20 nM and 40 μM, respectively. In a separate falcon tube, a 2×NADPH regenerating system (NRS) was prepared in phosphate buffer.
Both enzymatic assays were conducted in a 96-well microtiter plate (Black, CORNING® COSTAR®) with a final volume of 100 μL. Preparation of the plate began with the addition of 74 μL of the E/S in the first well, and 50 μL to all subsequent wells (from 2-11). […] A 1:3 serial dilution of the test compound was conducted by removing 25 μL from the first well and diluting it with the second and so forth until the tenth row. Final concentrations yielded a range from 200 μM-0.01 μM. Well no. 11 contained no inhibitor, and well no. 12 contained no enzyme. Both were used as controls for background fluorescence. The plate was incubated for 30 min at 37° C. After incubation, the reaction was initiated by the addition of 50 μL of the 2×NRS to each well.
Immediately (within 1 min) the fluorescence was measured using a microplate reader (BIOTEK® Synergy Neo2). […] Data was exported and analyzed using Graph Pad Prism 7. […] The IC50 value was derived after the data was fitted on a 10-point curve using a four-parameter logistic regression model.

A value given as a limit tells only on which side of the number the result lay.

T1 sequence (P10635 whole entry): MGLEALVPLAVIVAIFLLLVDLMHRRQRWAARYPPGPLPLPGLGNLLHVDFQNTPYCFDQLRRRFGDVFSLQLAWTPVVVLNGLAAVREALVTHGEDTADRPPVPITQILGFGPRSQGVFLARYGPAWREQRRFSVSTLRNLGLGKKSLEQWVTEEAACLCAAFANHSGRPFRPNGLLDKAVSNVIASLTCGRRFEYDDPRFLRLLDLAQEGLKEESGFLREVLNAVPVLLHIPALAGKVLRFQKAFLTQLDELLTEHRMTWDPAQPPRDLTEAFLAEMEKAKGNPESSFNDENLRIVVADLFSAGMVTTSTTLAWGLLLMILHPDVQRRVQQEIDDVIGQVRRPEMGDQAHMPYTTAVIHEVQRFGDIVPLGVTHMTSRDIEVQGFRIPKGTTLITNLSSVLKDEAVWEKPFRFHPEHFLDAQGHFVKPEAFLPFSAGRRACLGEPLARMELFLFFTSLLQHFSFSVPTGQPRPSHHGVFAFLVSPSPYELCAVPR
Chain of CXCR4 (P61073 whole entry): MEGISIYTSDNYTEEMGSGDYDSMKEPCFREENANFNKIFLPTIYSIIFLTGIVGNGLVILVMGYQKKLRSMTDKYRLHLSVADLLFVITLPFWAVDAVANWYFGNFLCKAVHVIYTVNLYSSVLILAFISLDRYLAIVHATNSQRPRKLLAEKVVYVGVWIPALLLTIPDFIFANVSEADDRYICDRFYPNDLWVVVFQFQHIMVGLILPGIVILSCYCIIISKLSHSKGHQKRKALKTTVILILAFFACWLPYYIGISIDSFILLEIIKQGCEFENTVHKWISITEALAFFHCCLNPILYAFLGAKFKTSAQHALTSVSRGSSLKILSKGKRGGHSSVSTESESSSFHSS

By Papp is commonly meant the rate of passage across a membrane or cell layer, normalised by area and donor concentration. Read a high Papp as fast passage. The term IC50 denotes the concentration at which inhibition is half-maximal. For `CN1CCN(c2cccc3c2CC(CN(C)[C@H]2CCOc4cccnc42)NC3)CC1` (stereo partly drawn) [EMU-320, (4S)—N-methyl-N-((5-(4-methylpiperazin-1-yl)-1,2,3,4-tetrahydroisoquinolin-3-yl)methyl)-3,4-dihydro-2H-pyrano[3,2-b]pyridin-4-amine], the “Liver Microsomes % rem. @ 10 min. H” value in series [1] is reported as 74.7%. Further, the Papp at 4 h in “PAMPA assay” was 16.7 ×10⁻⁶ cm/s. Besides, at CXCR4, the IC50 turned out to be 28.9 nM.
In the case of `CC(=O)N1CCN(c2cccc3c2C[C@H](CN(C)[C@H]2CCCc4cccnc42)NC3)CC1` [EMU-262, 1-(4-((R)-3-((methyl((S)-5,6,7,8-tetrahydroquinolin-8-yl)amino)methyl)-1,2,3,4-tetrahydroisoquinolin-5-yl)piperazin-1-yl)ethan-1-one], the half-inhibitory concentration (IC50) on CYP2D6 was above 50 µM; at CXCR4 it was 14.6 nM. Besides, the half-life at 3 µM in series [1] was 16 min. Also, the Papp at 4 h in “PAMPA assay” was found to be 14.6 ×10⁻⁶ cm/s.
For `CN(C[C@H]1Cc2c(cccc2N2CCNC(=O)C2)CN1)[C@H]1CCCc2cccnc21` [EMU-254, 4-((R)-3-((methyl((S)-5,6,7,8-tetrahydroquinolin-8-yl)amino)methyl)-1,2,3,4-tetrahydroisoquinolin-5-yl)piperazin-2-one], the results for the IC50 at CYP2D6 and at CXCR4 were 8.1 µM and 31.6 nM, respectively. In addition, the half-life at 3 µM in series [1] came out at 37 min. This molecule showed a Papp at 4 h in the series “PAMPA assay” of 11.8 ×10⁻⁶ cm/s.
Take `CN1CCN(c2cccc3c2C[C@@H](CN(C)[C@H]2CCCc4cccnc42)NC3)C(=O)C1` [EMU-251, 4-methyl-1-((S)-3-((methyl((S)-5,6,7,8-tetrahydroquinolin-8-yl)amino)methyl)-1,2,3,4-tetrahydroisoquinolin-5-yl)piperazin-2-one]: the IC50 at CYP2D6 is above 50 µM; on CXCR4, 244 nM. In addition, in series [1], the half-life at 3 µM is 288 min. The Papp at 4 h in the series “PAMPA assay” stood at 14.6 ×10⁻⁶ cm/s.
On to `CN(C[C@H]1Cc2c(cccc2N2CC3COC2C3)CN1)[C@H]1CCCc2cccnc21` (stereo in doubt) [EMU-324, (S)—N—(((R)-5-((1S,4R)-2-oxa-6-azabicyclo[2.2.1]heptan-6-yl)-1,2,3,4-tetrahydroisoquinolin-3-yl)methyl)-N-methyl-5,6,7,8-tetrahydroquinolin-8-amine], for which the IC50 on CYP2D6 was above 20 µM; at CXCR4, 55 nM. For the same molecule, the “Liver Microsomes % rem. @ 10 min. H” value in series [1] was found to be 48.5%. This molecule also registered a Papp at 4 h in “PAMPA assay” of 10.6 ×10⁻⁶ cm/s.
As for `CCOC(=O)N1CCN(c2cccc3c2C[C@H](CN(C)[C@H]2CCCc4cccnc42)NC3)CC1` [EMU-261, ethyl 4-((R)-3-((methyl((S)-5,6,7,8-tetrahydroquinolin-8-yl)amino)methyl)-1,2,3,4-tetrahydroisoquinolin-5-yl)piperazine-1-carboxylate], the IC50 is 4.47 µM on CYP2D6 and 3.7 nM on CXCR4. Further, the half-life at 3 µM in series [1] was 4.9 min. In addition, the Papp at 4 h in the series “PAMPA assay” came to 14.6 ×10⁻⁶ cm/s.
On the same counts, the results for `CN(C[C@H]1Cc2c(cccc2N2CCN(S(C)(=O)=O)CC2)CN1)[C@H]1CCCc2cccnc21` [EMU-263, (S)—N-methyl-N—(((R)-5-(4-(methylsulfonyl)piperazin-1-yl)-1,2,3,4-tetrahydroisoquinolin-3-yl)methyl)-5,6,7,8-tetrahydroquinolin-8-amine] are 34.4 µM, 48.3 nM, 10 min and 13.4 ×10⁻⁶ cm/s.
Taken in the same sequence, the figures for `CN1CCN(c2cccc3c2C[C@H](CN(C)[C@H]2CCCc4cccnc42)NC3)CC1=O` [EMU-255, 1-methyl-4-((R)-3-((methyl((S)-5,6,7,8-tetrahydroquinolin-8-yl)amino)methyl)-1,2,3,4-tetrahydroisoquinolin-5-yl)piperazin-2-one] were 43.1 µM, 69.3 nM, 16 min and 13.6 ×10⁻⁶ cm/s.
`CN(C[C@H]1Cc2c(cccc2N2CCN3CCOC[C@H]3C2)CN1)[C@H]1CCCc2cccnc21` [EMU-343, (S)—N—(((R)-5-((R)-hexahydropyrazino[2,1-c][1,4]oxazin-8(1H)-yl)-1,2,3,4-tetrahydroisoquinolin-3-yl)methyl)-N-methyl-5,6,7,8-tetrahydroquinolin-8-amine]: the IC50 was 4.1 µM on CYP2D6 and 6.15 nM at CXCR4. Besides, the “Liver Microsomes % rem. @ 10 min. H” value in series [1] is recorded as 23.7%.

For the origin of these results see patent US12692259B2, “Morpholine-containing and piperazine-containing CXCR4 modulators and uses related thereto” (Emory University, priority 2021, dated 2026).
